Source: US5077059A, “Process for preparing melanogenic inhibitor, and pigmentation-lightening agent containing the same” (Yuaka; Mishimazo, priority 1987, dated 1991)

How the values were obtained:
Assay type in all cases: cell-based
[1] = system: B-16 cell derived from mouse melanoma; test: Melanogenic inhibitory activity in a prescribed pigment cell (B-16); details: Experiment 2, B-16 cell; intact melanogenic inhibitor at 1 or 3 units
Protocol: The melanogenic inhibitory activity in a prescribed pigment cell is detected by the method described in Cancer Research, Vol. 42, pp. 1994-2002 (1982).
B-16 cell derived from mouse melanoma is suspended in 10 ml Eagle's minimal essential medium (Grand Island Biological Co., Grand Island, N.Y.), supplemented with 10% fetal calf serum, to give 4×10^4 cells. The suspension is placed into a 25 cm^2 Roux's flask, and cultured at 37° C. with 5% CO2. The cultivation is continued for 5 days while replacing the culture medium with a fresh one supplemented with a melanogenic inhibitor specimen at the first- and third-days. After completion of the culture, the resultant cells are washed with a phosphate buffer (pH 7.2) containing 0.8 w/v % saline to detach them from the inside wall of the Roux's flask by the addition of a solution containing trypsin and EDTA (ethylenediaminetetraacetic acid), collected on a filter paper, and dried. The resultant cells are subjected to densitometry to measure the reflection light at a wave length of 500 nm, followed by determination of the reflection absorbance (degree of darkness).
One unit of melanogenic inhibitory activity is defined as the amount of the melanogenic inhibitor which halves the reflection absorbance of B-16 cells without treatment of melanogenic inhibitor.
(§1) According to the method for detecting melanogenic inhibitory activity in a prescribed pigment cell, specimens containing 1 or 3 units of an intact melanogenic inhibitor, obtained by the method in Experiment 1, were used to compare melanogenic inhibitory activity in established melanoma cell lines, i.e., B-16 cell (mouse melanoma origin), RPMI 1846 cell (hamster melanoma origin), and Malme-3M cell (human melanoma origin).

[2] = system: RPMI 1846 cell (hamster melanoma origin); test: Comparison of melanogenic inhibitory activity, RPMI 1846 cell; details: Experiment 2, RPMI 1846 cell; intact melanogenic inhibitor at 1 or 3 units
From the text: as §1
(§2) As control, either a system without melanogenic inhibitor or another system with melanogenic inhibitor which had been treated at […] for 2 hours was tested similarly as above.

[3] = system: Malme-3M cell (human melanoma origin); test: Comparison of melanogenic inhibitory activity, Malme-3M cell; details: Experiment 2, Malme-3M cell; intact melanogenic inhibitor at 1 or 3 units
From the text: as §1, §2

Measured: melanogenic inhibitory activity, comparison

N[C@@H](CCC(=O)N[C@@H](CS)C(=O)NCC(=O)O)C(=O)O [glutathione]
no melanogenic inhibition: all assays above

O=C1O[C@H]([C@@H](O)CO)C(O)=C1O [vitamin C]
no melanogenic inhibition: all assays above

N[C@@H](CS)C(=O)O [cysteine]
no melanogenic inhibition: all assays above
